Reference: the supplement of paper PMC10307832

Legend:
Experiment in all cases: relative viability (nuclei count vs DMSO), 5 days (fraction); higher = more cells survive
201T = tested on: 201T
Procedure, shortened: (§1)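 One day after seeding in 1536-well plates, lung cancer cell lines were dosed by pin tool. Dosing was either single-drug or a fixed anchor-drug dose plus five library-drug doses (not always all listed) in √10 steps. After 5 days, nuclei were stained in one fix-and-stain step and counted on 4× images, and relative viability is the nuclei count of treated wells over that of vehicle wells, given as the median of duplicate plates.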

ABC-1 = tested on: ABC-1
Procedure, shortened: as §1

BEN = tested on: BEN
Procedure, shortened: as §1

CAL-12T = tested on: CAL-12T
Procedure, shortened: as §1

COR-L 105 = tested on: COR-L 105
Procedure, shortened: as §1

COR-L23 = tested on: COR-L23
Procedure, shortened: as §1

EKVX = tested on: EKVX
Procedure, shortened: as §1

HARA = tested on: HARA
Procedure, shortened: as §1

HCC-366 = tested on: HCC-366
Procedure, shortened: as §1

LK-2 = tested on: LK-2
Procedure, shortened: as §1

LU99A = tested on: LU99A
Procedure, shortened: as §1

NCI-H1437 = tested on: NCI-H1437
Procedure, shortened: as §1

NCI-H1650 = tested on: NCI-H1650
Procedure, shortened: as §1

NCI-H1666 = tested on: NCI-H1666
Procedure, shortened: as §1

NCI-H2009 = tested on: NCI-H2009
Procedure, shortened: as §1

NCI-H2023 = tested on: NCI-H2023
Procedure, shortened: as §1

NCI-H2170 = tested on: NCI-H2170
Procedure, shortened: as §1

NCI-H3122 = tested on: NCI-H3122
Procedure, shortened: as §1

NCI-H441 = tested on: NCI-H441
Procedure, shortened: as §1

NCI-H661 = tested on: NCI-H661
Procedure, shortened: as §1

NCI-H727 = tested on: NCI-H727
Procedure, shortened: as §1

NCI-H838 = tested on: NCI-H838
Procedure, shortened: as §1

PC-14 = tested on: PC-14
Procedure, shortened: as §1

SW 900 = tested on: SW 900
Procedure, shortened: as §1

Compound `C[C@@H]1CN(CC(=O)Nc2ccc3c(c2)Cc2cccc(-c4cc(=O)cc(N5CCOCC5)o4)c2S3)C[C@H](C)O1` + COc1cccc2cc(-c3nc([C@H]4CC[C@H](C(=O)O)CC4)n4ncnc(N)c34)[nH]c12 [OSI-027] (partner 0.5 µM) has a relative viability (201T; first compound 0.04 µM) of 0.784, a relative viability (201T; first compound 0.1265 µM) of 0.68 and a relative viability (201T; first compound 0.4 µM) of 0.683. For the same compound, the relative viability (201T; first compound 4 µM) was 0.757, the relative viability (ABC-1; first compound 0.1265 µM) was 0.541 and the relative viability (ABC-1; first compound 0.4 µM) was 0.466. It also gave a relative viability (ABC-1; first compound 4 µM) of 0.439, a relative viability (BEN; first compound 0.04 µM) of 0.288 and a relative viability (BEN; first compound 0.1265 µM) of 0.28. The relative viability (BEN; first compound 0.4 µM) was 0.305, the relative viability (BEN; first compound 4 µM) was 0.296 and the relative viability (CAL-12T; first compound 0.04 µM) was 0.734. The relative viability (CAL-12T; first compound 0.1265 µM) was 0.675, the relative viability (CAL-12T; first compound 0.4 µM) was 0.561 and the relative viability (CAL-12T; first compound 4 µM) was 0.237. It also gave a relative viability (COR-L 105; first compound 0.04 µM) of 0.728, a relative viability (COR-L 105; first compound 0.1265 µM) of 0.828 and a relative viability (COR-L 105; first compound 0.4 µM) of 0.823. It also gave a relative viability (COR-L 105; first compound 4 µM) of 0.661, a relative viability (COR-L23; first compound 0.04 µM) of 0.782 and a relative viability (COR-L23; first compound 0.1265 µM) of 0.776. For the same compound, the relative viability (COR-L23; first compound 0.4 µM) was 0.73, the relative viability (COR-L23; first compound 4 µM) was 0.717 and the relative viability (EKVX; first compound 0.04 µM) was 0.713. For the same compound, the relative viability (EKVX; first compound 0.1265 µM) was 0.676, the relative viability (EKVX; first compound 0.4 µM) was 0.712 and the relative viability (EKVX; first compound 4 µM) was 0.618. The relative viability (HARA; first compound 0.1265 µM) was 0.499, the relative viability (HARA; first compound 0.4 µM) was 0.251 and the relative viability (HARA; first compound 4 µM) was 0.412. The relative viability (HCC-366; first compound 0.04 µM) was 1.04, the relative viability (HCC-366; first compound 0.1265 µM) was 0.867 and the relative viability (HCC-366; first compound 0.4 µM) was 0.648. The relative viability (HCC-366; first compound 4 µM) was 0.502, the relative viability (LK-2; first compound 0.04 µM) was 0.196 and the relative viability (LK-2; first compound 0.1265 µM) was 0.207. For the same compound, the relative viability (LK-2; first compound 0.4 µM) was 0.162, the relative viability (LK-2; first compound 4 µM) was 0.257 and the relative viability (LU99A; first compound 0.04 µM) was 0.282. The relative viability (LU99A; first compound 0.1265 µM) was 0.34, the relative viability (LU99A; first compound 0.4 µM) was 0.299 and the relative viability (LU99A; first compound 4 µM) was 0.374. The relative viability (NCI-H1437; first compound 0.04 µM) was 0.918, the relative viability (NCI-H1437; first compound 0.1265 µM) was 0.881 and the relative viability (NCI-H1437; first compound 0.4 µM) was 0.864. For the same compound, the relative viability (NCI-H1437; first compound 4 µM) was 0.747, the relative viability (NCI-H1650; first compound 0.04 µM) was 0.761 and the relative viability (NCI-H1650; first compound 0.1265 µM) was 0.662. For the same compound, the relative viability (NCI-H1650; first compound 0.4 µM) was 0.591, the relative viability (NCI-H1650; first compound 4 µM) was 0.449 and the relative viability (NCI-H1666; first compound 0.04 µM) was 0.932. It also gave a relative viability (NCI-H1666; first compound 0.1265 µM) of 0.87, a relative viability (NCI-H1666; first compound 0.4 µM) of 0.978 and a relative viability (NCI-H1666; first compound 4 µM) of 0.838. The relative viability (NCI-H2009; first compound 0.04 µM) was 0.712, the relative viability (NCI-H2009; first compound 0.1265 µM) was 0.648 and the relative viability (NCI-H2009; first compound 0.4 µM) was 0.613. The relative viability (NCI-H2009; first compound 4 µM) was 0.448, the relative viability (NCI-H2023; first compound 0.04 µM) was 0.518 and the relative viability (NCI-H2023; first compound 0.1265 µM) was 0.387. The relative viability (NCI-H2023; first compound 0.4 µM) was 0.306, the relative viability (NCI-H2023; first compound 4 µM) was 0.197 and the relative viability (NCI-H2170; first compound 0.04 µM) was 0.712. It also gave a relative viability (NCI-H2170; first compound 0.1265 µM) of 0.685, a relative viability (NCI-H2170; first compound 0.4 µM) of 0.581 and a relative viability (NCI-H2170; first compound 4 µM) of 0.707. For the same compound, the relative viability (NCI-H3122; first compound 0.04 µM) was 0.994, the relative viability (NCI-H3122; first compound 0.1265 µM) was 0.901 and the relative viability (NCI-H3122; first compound 0.4 µM) was 0.206. For the same compound, the relative viability (NCI-H3122; first compound 4 µM) was 0.668, the relative viability (NCI-H441; first compound 0.04 µM) was 0.74 and the relative viability (NCI-H441; first compound 0.1265 µM) was 0.791. For the same compound, the relative viability (NCI-H441; first compound 0.4 µM) was 0.398, the relative viability (NCI-H441; first compound 4 µM) was 0.438 and the relative viability (NCI-H661; first compound 0.04 µM) was 0.694. It also gave a relative viability (NCI-H661; first compound 0.1265 µM) of 0.701, a relative viability (NCI-H661; first compound 0.4 µM) of 0.646 and a relative viability (NCI-H661; first compound 4 µM) of 0.666. It also gave a relative viability (NCI-H727; first compound 0.04 µM) of 0.546, a relative viability (NCI-H727; first compound 0.1265 µM) of 0.485 and a relative viability (NCI-H727; first compound 0.4 µM) of 0.537. For the same compound, the relative viability (NCI-H727; first compound 4 µM) was 0.656, the relative viability (NCI-H838; first compound 0.04 µM) was 0.401 and the relative viability (NCI-H838; first compound 0.1265 µM) was 0.377. For the same compound, the relative viability (NCI-H838; first compound 0.4 µM) was 0.312, the relative viability (NCI-H838; first compound 4 µM) was 0.288 and the relative viability (PC-14; first compound 0.04 µM) was 1.02. The relative viability (PC-14; first compound 0.1265 µM) was 0.761, the relative viability (PC-14; first compound 0.4 µM) was 0.744 and the relative viability (PC-14; first compound 4 µM) was 0.653. The relative viability (SW 900; first compound 0.04 µM) was 0.455, the relative viability (SW 900; first compound 0.1265 µM) was 0.573 and the relative viability (SW 900; first compound 0.4 µM) was 0.647. The relative viability (SW 900; first compound 4 µM) was 0.45.
